Molecular target: KCNQ2/KCNQ3 potassium channel current expressed in mammalian cells (Homo sapiens, UniProt O43525+O43526)
Test: KCNQ2/KCNQ3 current enhancement, automated parallel patch-clamp (PatchXpress 7000A)
Format: cell-based
Settings: mean±s.e.m
Procedure: The objective of this study was to examine the in vitro effects of the Example compounds on the KCNQ2/KCNQ3 potassium channel current expressed in mammalian cells using the PatchXpress 7000A (Molecular Devices), an automatic parallel patch-clamp system. The test compounds were evaluated at 30 or 10 μM (n≦2). The duration of exposure to the test compound was 5 minutes. […] The results for a positive control, flupirtine (Table 2) applied to naïve cells in the same study confirm the sensitivity of the test system to detect KCNQ2/KCNQ3 current enhancement.
All experiments were performed at ambient temperature. Each cell acted as its own control.
A 30 μM or 10 μM concentration of test compound was applied via disposable polyethylene micropipette tips to naïve cells. Each solution exchange, performed in quadruplicate, consisted of aspiration and replacement of 45 μL of the total 50 μL volume of the extracellular well of the Sea/chip16.
Vehicle was applied to naïve cells (n≦2), for a 5 minute exposure interval.
Each solution exchange, performed in quadruplicate, consisted of aspiration and replacement of 45 μL of the total 50 μL volume of the extracellular well of the Sea/chip16. After vehicle application, the positive control was applied in the same manner, to verify sensitivity of the assay.
In preparation for a recording session, intracellular solution was loaded into the intracellular compartments of the Sea/chip16 planar electrode. Cell suspension was pipetted into the extracellular compartments of the Sea/chip16 planar electrode. After establishment of the whole-cell configuration, membrane currents were recorded using dual-channel patch-clamp amplifiers in the PatchXpress® system. Before digitization, the current records were low-pass filtered at one-fifth of the sampling frequency.
Data acquisition and analysis were performed using the pCLAMP suite of programs (Axon Instruments, Union City, Calif.). The steady-state current before and after test article application was used to calculate the percentage current enhancement at each concentration. The results obtained from different cells were averaged and presented as mean±s.e.m (see Tables 1 and 2).

[1] = 30 μM test compound, 5 minutes exposure, ambient temperature

Row | Compound | Mean % Enhancement of KCNQ2/KCNQ3 [1] | further results
1 | O=S(=O)(Cc1ccccc1Nc1c(Cl)cccc1Cl)NCCOCCO [Example 1, 1-[2-(2,6-Dichlorophenylamino)phenyl]-N-[2-(2-hydroxyethoxy)ethyl]-methanesulfonamide] | 32.4 ± 18% | –
2 | O=S(=O)(NCCO)c1cc(Nc2c(Cl)cc(Cl)cc2Cl)ccc1Cl [Example 18, 2-Chloro-N-(2-hydroxyethyl)-5-(2,4,6-trichlorophenylamino)benzensulfonamide] | – | Mean % Enhancement of KCNQ2/KCNQ3 (10 μM test compound, 5 minutes exposure, ambient temperature): 18.6 ± 4%
3 | CCOC(=O)Nc1ccc(NCc2ccc(F)cc2)nc1N [Flupirtine, flupirtine, reference compound] | – | Mean % Enhancement of KCNQ2/KCNQ3 (positive control, 10 μM, applied after vehicle to naïve cells): 127 ± 16%

Second part, led by results:

Row | Mean % Enhancement of KCNQ2/KCNQ3 [1] | Compound | further results
4 | 41.2 ± 9% | O=S(=O)(NCCO)c1ccccc1Nc1c(Cl)cc(Cl)cc1Cl [Example 8, N-(2-Hydroxyethyl)-2-(2,4,6-trichlorophenylamino)-benzenesulfonamide] | –
5 | 56.8 ± 9% | O=S(=O)(NCCO)c1ccccc1Nc1c(Cl)cccc1Cl [Example 9, N-(2-Hydroxyethyl)-2-(2,6-dichlorophenylamino)-benzenesulfonamide] | –
6 | 87.4 ± 14% | O=S(=O)(NCCO)c1cccc(Nc2c(Cl)cc(Cl)cc2Cl)c1 [Example 16, N-(2-Hydroxyethyl)-3-(2,4,6-trichlorophenylamino)-benzenesulfonamide] | –

Source: patent US8466201B2, “Potassium ion channel modulators and uses thereof” (Ramot at Tel-Aviv University ltd., priority 2007, dated 2013)
